pEC50, pIC50: −log10 of the molar value. The source made the active and inactive calls. No cut-off for these calls is given here.
What was measured:
[1] = Effect on nitric oxide release in phosphate buffer at pH 7.4 in presence of cysteine at 100 uM; type: functional
Liver microsomes [2] = test: Antioxidant activity in rat hepatic microsomal membrane at 1 mM; type: functional; settings: Microsome
[3] = target: T1, Beta-2 adrenergic receptor (Rattus norvegicus, UniProt P10608); test: Vasodilating activity against phenylephrine-induced contractions in rat thoracic aorta
T1 sequence (P10608 whole entry): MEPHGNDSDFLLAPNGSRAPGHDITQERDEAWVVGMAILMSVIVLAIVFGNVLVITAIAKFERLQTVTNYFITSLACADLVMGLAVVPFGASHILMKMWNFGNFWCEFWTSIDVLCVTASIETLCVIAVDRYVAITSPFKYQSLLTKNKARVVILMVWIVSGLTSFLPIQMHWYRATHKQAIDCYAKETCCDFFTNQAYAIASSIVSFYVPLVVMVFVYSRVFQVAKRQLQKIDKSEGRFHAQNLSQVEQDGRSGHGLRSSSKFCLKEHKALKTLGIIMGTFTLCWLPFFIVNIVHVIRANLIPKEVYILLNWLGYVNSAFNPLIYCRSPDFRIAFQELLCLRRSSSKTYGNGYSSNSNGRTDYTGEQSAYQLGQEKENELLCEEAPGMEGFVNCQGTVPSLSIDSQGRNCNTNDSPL

[4] = target: Beta-2 adrenergic receptor (Rattus norvegicus) (UniProt P10608); type: functional, tissue-based; settings: Thoracic aorta, 100 uM
Beta-2 adrenergic receptor (Rattus norvegicus), sequence (P10608 whole entry, looked up): as the sequence (P10608 whole entry) above

[5] = target: T2, Beta-2 adrenergic receptor (Cavia porcellus, UniProt Q8K4Z4)
T2 sequence (Q8K4Z4 whole entry): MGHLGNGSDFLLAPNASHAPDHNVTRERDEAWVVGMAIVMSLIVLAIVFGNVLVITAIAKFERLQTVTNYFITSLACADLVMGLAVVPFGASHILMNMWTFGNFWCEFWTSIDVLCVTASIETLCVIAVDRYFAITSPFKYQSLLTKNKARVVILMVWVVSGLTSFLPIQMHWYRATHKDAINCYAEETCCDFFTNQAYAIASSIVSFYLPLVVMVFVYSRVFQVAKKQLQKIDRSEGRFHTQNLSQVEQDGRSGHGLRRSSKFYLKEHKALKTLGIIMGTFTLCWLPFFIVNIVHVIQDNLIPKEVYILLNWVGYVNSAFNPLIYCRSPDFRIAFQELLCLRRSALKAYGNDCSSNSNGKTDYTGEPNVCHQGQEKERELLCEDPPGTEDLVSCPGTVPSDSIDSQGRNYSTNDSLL

[6] = target: T1, Beta-2 adrenergic receptor
Description: Vasodilating activity against phenylephrine-induced contraction in rat thoracic aorta in presence of 1H-[1,2,4]oxadiazolo-[4,3-a]quinoxalin-1-one

Liver microsomes [7] = test: Antioxidant activity in rat hepatic microsomal membrane
[8] = target: Beta-2 adrenergic receptor (Rattus norvegicus) (UniProt P10608); test: Vasodilating activity in rat thoracic aorta on phenylephrine-induced contraction at 100 uM; type: functional, tissue-based
[9] = target: Beta-2 adrenergic receptor (Cavia porcellus) (UniProt Q8K4Z4); test: Agonist activity at adrenergic beta-2 receptor in guinea pig tracheal rings assessed as myorelaxing activity on carbachol-induced contraction at 100 uM; type: functional; parameters: scale not given: the % may be the effect or the level left
Beta-2 adrenergic receptor (Cavia porcellus), sequence (Q8K4Z4 whole entry, looked up): as the sequence (Q8K4Z4 whole entry) above

[10] = target: T2, Beta-2 adrenergic receptor; remark: listed apart in the source
Description: Agonist activity at adrenergic beta-2 receptor in guinea pig tracheal rings assessed as myorelaxing activity on carbachol-induced contraction in presence of 1H-[1,2,4]oxadiazolo-[4,3-a]quinoxalin-1-one

[11] = target: T2, Beta-2 adrenergic receptor; remark: listed apart in the source

Row | Structure (SMILES) | Activity [1] [%] | pEC50 [3] | pEC50 [5] | pIC50 (Liver microsomes [7]) | also measured
1 | NC(=O)c1c(CO)no[n+]1[O-] | 12 | 5.20 | 4.07 | – | Activity (Liver microsomes [2]): inactive; Activity [4]: < 50%
2 | CCOc1no[n+]([O-])c1S(=O)(=O)c1ccccc1 | 36 | 7.92 | 5.64 | 3.96 | pEC50 [6]: 5.92
3 | Cc1c(CO)no[n+]1[O-] | < 1 | – | – | – | Activity (Liver microsomes [2]): inactive; Activity [8]: < 50%; Activity [9]: < 50%
4 | CC(Cc1ccc(OCc2no[n+]([O-])c2C(N)=O)cc1)NCC(O)c1cc(O)cc(O)c1 (racemic) [listing 1 of 2 here] | – | 5.92 | 6.00 | – | pEC50 [6]: 4.80; pEC50 [10]: 5.96
5 | CC(Cc1ccc(OCc2no[n+]([O-])c2C(N)=O)cc1)NCC(O)c1cc(O)cc(O)c1 (racemic) [listing 2 of 2 here] | 10.4 | – | – | – | –
6 | CC(Cc1ccc(Oc2no[n+]([O-])c2S(=O)(=O)c2ccccc2)cc1)NCC(O)c1cc(O)cc(O)c1 (stereo in doubt; 15a) [listing 1 of 2 here] | – | 7.85 | 7.74 | 4.87 | pEC50 [6]: 6.07; pEC50 [10]: 7.77
7 | CC(Cc1ccc(Oc2no[n+]([O-])c2S(=O)(=O)c2ccccc2)cc1)NCC(O)c1cc(O)cc(O)c1 (stereo in doubt; 15a) [listing 2 of 2 here] | 28.4 | – | – | – | –
8 | CC(Cc1ccc(Oc2no[n+]([O-])c2S(=O)(=O)c2ccccc2)cc1)NCC(O)c1cc(O)cc(O)c1 (stereo in doubt; 15b) [listing 1 of 2 here] | – | 7.85 | 6.60 | – | pEC50 [6]: 5.89; pEC50 [10]: 6.36
9 | CC(Cc1ccc(Oc2no[n+]([O-])c2S(=O)(=O)c2ccccc2)cc1)NCC(O)c1cc(O)cc(O)c1 (stereo in doubt; 15b) [listing 2 of 2 here] | 27.5 | – | – | – | –
10 | CC(Cc1ccc(Oc2nonc2S(=O)(=O)c2ccccc2)cc1)NCC(O)c1cc(O)cc(O)c1 (stereo in doubt; 16a) | – | – | 7.41 | 4.24 | –
11 | CC(Cc1ccc(Oc2nonc2S(=O)(=O)c2ccccc2)cc1)NCC(O)c1cc(O)cc(O)c1 (stereo in doubt; 16b) | – | – | – | – | pEC50 [11]: 7.41
12 | CC(Cc1ccc(OCc2no[n+]([O-])c2C(N)=O)cc1)NCC(O)c1cc(O)cc(O)c1 (stereo in doubt; 34a) [listing 1 of 2 here] | – | 5.92 | 6.96 | 3.81 | pEC50 [6]: 4.85; pEC50 [10]: 6.89
13 | CC(Cc1ccc(OCc2no[n+]([O-])c2C(N)=O)cc1)NCC(O)c1cc(O)cc(O)c1 (stereo in doubt; 34a) [listing 2 of 2 here] | 11.5 | – | – | – | –
14 | CC(Cc1ccc(OCc2nonc2C(N)=O)cc1)NCC(O)c1cc(O)cc(O)c1 (stereo in doubt; 35a) | – | – | 7.54 | 3.54 | –
15 | CC(Cc1ccc(OCc2nonc2C(N)=O)cc1)NCC(O)c1cc(O)cc(O)c1 (stereo in doubt; 35b) | – | – | 6.77 | – | –
16 | Cc1c(COc2ccc(CC(C)NCC(O)c3cc(O)cc(O)c3)cc2)no[n+]1[O-] (stereo in doubt; 36a) [listing 1 of 2 here] | – | 4.74 | 6.66 | 3.53 | pEC50 [10]: 6.64
17 | Cc1c(COc2ccc(CC(C)NCC(O)c3cc(O)cc(O)c3)cc2)no[n+]1[O-] (stereo in doubt; 36a) [listing 2 of 2 here] | < 1 | – | – | – | Activity [4]: < 50%
18 | Cc1c(COc2ccc(CC(C)NCC(O)c3cc(O)cc(O)c3)cc2)no[n+]1[O-] (stereo in doubt; 36b) [listing 1 of 2 here] | – | 4.70 | 5.89 | – | pEC50 [10]: 5.92
19 | Cc1c(COc2ccc(CC(C)NCC(O)c3cc(O)cc(O)c3)cc2)no[n+]1[O-] (stereo in doubt; 36b) [listing 2 of 2 here] | < 1 | – | – | – | Activity [4]: < 50%
20 | Cc1nonc1COc1ccc(CC(C)NCC(O)c2cc(O)cc(O)c2)cc1 (stereo in doubt; 37a) | – | – | 6.96 | 3.91 | –
21 | Cc1nonc1COc1ccc(CC(C)NCC(O)c2cc(O)cc(O)c2)cc1 (stereo in doubt; 37b) | – | – | 5.66 | – | –

— ChEMBL document CHEMBL1148806 (J Med Chem, 2007)
